Test results as given in patent US10632106B2, “Methods of cancer treatment with 2-(1′H-Indole-3′-carbonyl)-thiazole-4-carboxylic acid methyl ester” (Ariagen, Inc., priority 2009, dated 2020).

Key:
[1] = system: M14 (human skin cancer) xenografts; assay: M14 xenograft growth inhibition; format: in vivo; conditions: ITE 100-200 mg/kg i.p. once daily
Procedure: (§1) All the procedures related to animal handling, care, and the treatment in the study were performed following guidelines of KeyGen Biotechn Co., Ltd. (Nanjing, China), a contract research organization we hired, based on the guidance of the Association for Assessment and Accreditation of Laboratory Animal Care (AAALAC). Animals were checked for any effects of tumor growth and drug treatment on normal behavior such as mobility, food and water consumption, body weight gain/loss (bodyweights were measured every two days), eye/hair matting, and any other abnormal effect. Death and observed clinical signs were recorded. Individual animals with a tumor volume exceeding 3,000 mm^3 or animals of a group with a mean tumor volume exceeding 2,000 mm^3 were euthanized. In addition, animals showing signs of severe distress and/or pain or losing the capability of accessing adequate food or water were humanely sacrificed.
(§2) Cell lines HCT116, Siha, MFC were cultured in DMEM medium (high glucose) supplemented with 10% fetal bovine serum (FBS), SW116 and T24 in RPMI-1640 medium with 10% FBS, M14 and A375 in DMEM medium (high glucose) with 10% calf serum (CS), SGC7901 and Ketr-3 in RPMI-1640 medium with 10% CS, and CFPAC-1 in IMDM medium with 10% FBS. All of the cells were cultured, in the presence of 100 U/ml penicillin and 100 μg/ml streptomycin, at 37° C. in an atmosphere of 5% CO2 in air. […] The cells growing in an exponential phase were harvested and counted for tumor inoculation. Cell lines 5180 and U14 were maintained in ascites (peritoneal cavity fluid) of mice and were harvested and counted for tumor inoculation. […]
(§3) Tumor volume was measured every two days in two dimensions using a caliper and the volume was calculated with a formula of: V=0.5 a×b^2, where a and b are the long and short diameter (in mm) of a tumor, respectively. […] The TGD was calculated as: TGD=T−C, where T was the time (in days) required for tumors in a drug treated group to reach a predetermined mean tumor volume and C the time (in days) in the control group to reach the same volume. […]

[2] = system: Siha (human cervical cancer) xenografts; assay: Siha xenograft growth inhibition; format: in vivo; conditions: ITE 100-200 mg/kg i.p. once daily
Procedure: as §1, §2, §3

[3] = end of therapy relative to beginning

COC(=O)c1csc(C(=O)c2c[nH]c3ccccc23)n1 [ITE, 2-(1′H-indole-3′-carbonyl)-thiazole-4-carboxylic acid methyl ester]
TGD ([1]; TGD at Vol. 1,000): 5 days | TGI (%) ([1]; TGI at day 26, TGI=(1−ΔT/ΔC)×100%): 48% | Weight Loss [1, 3]: 15% | TGD ([2]; TGD at Vol. 1,000): 7 days | TGI (%) ([2]; TGI at day 24, TGI=(1−ΔT/ΔC)×100%): 53% | Weight Loss [2, 3]: 19%
